In assay [1] the test system is Luciferase-MC38 cells. Description: Mouse CRC liver metastasis model by intra-splenic injection, reparixin alone (Example 4). The assay is classed as in vivo, C57BL/6 mice. The conditions noted are these: for liver weight / liver/body weight ratio: reparixin 30 mg/kg intraperitoneally every other day, day 12. On the procedure: Experimental methods: Luciferase-MC38 cells were intrasplenically injected into C57BL/6 mice complicated by NAFLD or uncomplicated by NAFLD. Subsequently, reparixin (MCE, 30 mg/kg) or PBS was intraperitoneally injected every other day. On day 6 after tumor inoculation, the extent of liver metastasis was observed by imaging using an In vivo Imaging System (IVIS, PerkinElmer, Hopkinton, MA, USA). On day 12 after tumor inoculation, the mice were sacrificed under isoflurane anesthesia and soaked in alcohol for 30 min. Livers from each group of mice were prepared into single-cell suspensions, which were subjected to blocking, staining, incubation, and subsequent detection on the machine.
(§1) Experimental grouping: The experimental groups were injected with reparixin, and the control group was injected with PBS.
(A) Experimental treatment protocol: After Luciferase-MC38 cells were inoculated, PBS or reparixin was injected on days 3, 5, 7, 9, and 11, respectively, and the mice were sacrificed on day 12. (B) In vivo bioluminescence imaging of each group (CRLM group, CRLM + reparixin group, NAFLD + CRLM group, NAFLD + CRLM + reparixin group) on day 6 after tumor inoculation. (C) Representative gross anatomical views of livers of each group of mice (samples collected on day 12 after treatment); yellow arrows represent tumors. (D) Liver weight of each group of mice; n = 5-6.

Assay [2] concerns NAFLD. Description: Mouse NAFLD model induced by 60% high-fat feed, oil red staining and immunohistochemistry of liver (Example 6). The assay is classed as in vivo. The conditions noted are these: NAFLD mice, 30 mg/kg intraperitoneally once every 2 days. Here is the method:
Experimental methods: The "Western diet" (WD) was simulated with 60% high-fat feed, and the NAFLD model could be established within 12 weeks. After the establishment of the animal model, the mice were intraperitoneally injected once every 2 days at a dose of 30 mg/kg. Liver tissues of the mice were collected on days 12, 15, and 21 of administration, and oil red staining was performed on the liver tissues of each group.
as §1
(A) After NAFLD was established, raparixin was intraperitoneally injected once every two days; macroscopic views of representative liver tissues and oil red staining of liver sections in each group are shown, and the scale represents 50 µm. (B) Oil red staining positive area rate of NAFLD and 12-day treatment groups, n = 4. (C) Oil red staining positive area rate of NAFLD and 15-day treatment groups, n = 4. Statistical test: mean + SD, Student's t-test, * p < 0.05.
A: representative gross views of livers of mice in the NAFLD treatment group and untreated group, and oil red O staining and immunohistochemical staining on liver sections of the two groups of mice, with the scale bar being 100 µm; B-C: comparison of mean immunohistochemical staining densities of IL6 (B) and CXCR2 (C) in livers of NAFLD mice treated with reparixin for 21 days (mean ± SD, Student's t test).

For assay [3] the following is noted: 5 mg/kg subcutaneously once daily for 3 consecutive weeks; cited from earlier work.
The test system of assay [4] is IL-1β. To be noted: after MCAo in mice; cited from earlier work.
Assay [5] relates to gastric cancer. To be noted: treatment of gastric cancer; cited from earlier work.

Here are results for 1 compound from patent EP4681707A1, “METHOD FOR TREATING DISEASES BY USING REPARIXIN ALONE OR IN COMBINATION WITH ANTI-PD-1 ANTIBODY” (Shandong Cancer Hospital Affiliated to Shandong First …, priority 2023, dated 2024).

For the compound `CC(C)Cc1ccc([C@@H](C)C(=O)NS(C)(=O)=O)cc1` [reparixin], in assay [1] (CRLM animal model), the liver weight result is listed as “decreased significantly” and the liver/body weight ratio entry is on record as “decreased significantly”. In assay [1] (NAFLD + CRLM animal model), the liver weight entry is reported as “decreased significantly” and the liver/body weight ratio entry is “decreased significantly”. For the same compound, the liver metastasis burden entry in assay [1] (especially in mice complicated by NAFLD, 30 mg/kg intraperitoneally) is on record as “can reduce the liver metastasis burden”. Further, the inflammation result in assay [2] (IL6 and CXCR2 staining after 21 days) is recorded as “reduce inflammation”. Further, in assay [2] (days 12, 15, 21), the hepatocellular steatosis result is recorded as “significantly ameliorated” and the lipid vacuoles result is “reduced”. For the same compound, in assay [3], the blood flow result was “increased” and the systolic blood pressure result was “effectively reduced”. Moreover, the “level of IL-1β in the brain” value in assay [4] is “reduce”. Besides, in assay [5], the “overall survival (OS) rate” value is reported as “prolongs” and the “programmed death ligand 1 macrophages” value is recorded as “reduction”.
